Test systems include PC-3 prostate; KM12 colon; ACHN renal; A549 NSCLC; COLO 205 colon; HCC-2998 colon; SNB-19 CNS; HS 578T breast; SR leukemia; HOP-92 NSCLC.
Holding throughout (test): growth of human tumour cells (NCI), 48 h

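Compound exposure: 48 hours, 5 concentrations, 96-well plates. TGI marks complete inhibition of growth.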 Square brackets hold non-standard residues; d marks the D form. Peptide text beside a SMILES is read from it. Phe(4-NO2) = N[CH](Cc1ccc([N+](=O)[O-])cc1)C(=O)O

In the case of `C(#C[C@@]12CCC[C@@H]1N(Cc1ccccc1)CO2)c1ccc2c(c1)OCO2`, the TGI in the assay with PC-3 prostate, with KM12 colon, in the assay with ACHN renal, in the assay with A549 NSCLC, in the assay on COLO 205 colon and with HCC-2998 colon was more than 100 µM each time. Besides, the TGI in the assay with SNB-19 CNS and in the assay on HS 578T breast was more than 100 µM in each case.

Turning to `O=C(c1cccc2cc(O)ccc12)c1cn(CCN2CCOCC2)c2ccccc12`, the TGI in the assay on PC-3 prostate was 35.5 µM; with SR leukemia, more than 100 µM; in the assay on ACHN renal it was more than 100 µM; with COLO 205 colon it was 78.8 µM; in the assay on SNB-19 CNS, more than 100 µM; in the assay with HOP-92 NSCLC it was 71.6 µM.

Consider `O=c1oc2ccccc2n1CCCn1c(=O)oc2ccccc21`, for which the TGI in the assay with PC-3 prostate, with SR leukemia, with KM12 colon, with ACHN renal, in the assay on COLO 205 colon and in the assay on SNB-19 CNS was more than 100 µM throughout. The TGI in the assay with HS 578T breast is more than 100 µM.

With `CC(C)(C)C(=O)CC(=O)C(F)(F)C(F)(F)C(F)(F)F.[Ag]`, the TGI was 26.8 µM in the assay on PC-3 prostate; 22.4 µM with SR leukemia; 50.8 µM in the assay with KM12 colon; 28.7 µM in the assay on ACHN renal; more than 100 µM in the assay with A549 NSCLC; 57.9 µM in the assay with COLO 205 colon. For the same compound, the TGI was determined as 43.9 µM with SNB-19 CNS, 63.8 µM in the assay with HS 578T breast and 40.2 µM in the assay with HOP-92 NSCLC.

On to `COc1ccc2c(c1)C=C(C(C)(C)C)NS2(=O)=O`, for which the TGI with SR leukemia, in the assay with KM12 colon, in the assay on ACHN renal, in the assay on A549 NSCLC, in the assay on COLO 205 colon and in the assay on HCC-2998 colon was more than 100 µM each time. The TGI with SNB-19 CNS and in the assay on HOP-92 NSCLC was more than 100 µM each time.

For `CC(c1ccccc1)C(O)S(=O)(=O)O` (stereo not drawn), the TGI in the assay with KM12 colon, in the assay with ACHN renal, with A549 NSCLC, in the assay with COLO 205 colon, in the assay with SNB-19 CNS and with HOP-92 NSCLC was more than 100 µM in each case.

With `CC1(C)/C(=N\Nc2ccc([N+](=O)[O-])cc2[N+](=O)[O-])C2CCC1C2` (stereo not drawn), the TGI with PC-3 prostate, in the assay on SR leukemia, with KM12 colon, in the assay on ACHN renal, with A549 NSCLC and with COLO 205 colon was more than 100 µM throughout. The TGI in the assay on SNB-19 CNS was more than 100 µM; with HS 578T breast it was 98.6 µM; in the assay on HOP-92 NSCLC, more than 100 µM.

In the case of `CCOC(=O)/C=C/c1c[nH]c(=O)[nH]c1=O`, the TGI with KM12 colon, in the assay on A549 NSCLC, with COLO 205 colon, in the assay with HCC-2998 colon, with SNB-19 CNS and in the assay with HOP-92 NSCLC was more than 75 µM each time.

On to `COc1cc(OC)cc(C(=O)Cc2c(C(=O)c3ccccc3)c3ccccc3n2C(=O)c2ccccc2)c1`, for which the TGI was more than 100 µM with SR leukemia; more than 100 µM with KM12 colon; more than 100 µM in the assay with ACHN renal; more than 100 µM in the assay with A549 NSCLC; 93.4 µM with COLO 205 colon; more than 100 µM with HCC-2998 colon. The TGI amounted to 69 µM in the assay on SNB-19 CNS and 31.3 µM in the assay on HOP-92 NSCLC.

As to `COc1ccc2c(c1)OC1c3ccccc3OCC21` (stereo not drawn), the TGI in the assay with PC-3 prostate, in the assay with KM12 colon, in the assay on ACHN renal, in the assay with COLO 205 colon, in the assay with HCC-2998 colon and in the assay on SNB-19 CNS was more than 100 µM throughout. Besides, the TGI in the assay with HS 578T breast and in the assay on HOP-92 NSCLC was more than 100 µM each time.

Take `C/C(=N\Nc1nc2ccccc2o1)c1cc2ccccc2cn1`: the TGI in the assay with PC-3 prostate was 12 µM; in the assay on KM12 colon it was 7.85 µM; with ACHN renal it was 2.55 µM; with A549 NSCLC it was 9.46 µM; in the assay on COLO 205 colon it was more than 32.7 µM; in the assay on SNB-19 CNS it was 20.5 µM. For the same compound, the TGI is 11.2 µM in the assay on HS 578T breast and 11.1 µM in the assay on HOP-92 NSCLC.

For `N[C@@H](Cc1ccc2oc3cc(=O)c4ccccc4c-3nc2c1)C(=O)O`, the TGI is 60.4 µM in the assay with SR leukemia; more than 100 µM with KM12 colon; more than 100 µM in the assay with ACHN renal; more than 100 µM in the assay with A549 NSCLC; 38.9 µM in the assay with COLO 205 colon; 77.6 µM with SNB-19 CNS. In addition, the TGI in the assay with HS 578T breast and in the assay on HOP-92 NSCLC was more than 100 µM in each case.

For `COc1ccc(/C=C2/SC(c3c(O)ccc4ccccc34)N(NC(=O)CCCCCCCCC(=O)NN3C(=O)/C(=C\c4ccc(OC)c(OC)c4)SC3c3c(O)ccc4ccccc34)C2=O)cc1OC` (stereo not drawn), the TGI in the assay with PC-3 prostate was more than 100 µM; with SR leukemia, 1.62 µM; in the assay with KM12 colon, more than 100 µM; with ACHN renal, more than 54.1 µM; in the assay on A549 NSCLC, more than 21.4 µM; in the assay with COLO 205 colon it was more than 29.9 µM. Further, the results for the TGI in the assay with HCC-2998 colon, in the assay with SNB-19 CNS and in the assay with HOP-92 NSCLC were more than 100 µM, more than 91.7 µM and 23.3 µM, respectively.

Turning to `C=CC(C)(C)n1cc(C2=C(O)C(=O)C(c3c(CC=C(C)C)[nH]c4ccccc34)=C(O)C2=O)c2ccccc21`, the TGI is 4.78 µM with PC-3 prostate; 2.63 µM in the assay with KM12 colon; 4.32 µM in the assay on ACHN renal; 7.85 µM in the assay with A549 NSCLC; 3.23 µM with COLO 205 colon; 2.33 µM with HCC-2998 colon. Also, the TGI in the assay on SNB-19 CNS worked out at 10.8 µM; in the assay on HS 578T breast, 25 µM; with HOP-92 NSCLC, 3.35 µM.

Regarding `COC(=O)CCC(NC(=O)C(CCC(=O)OC)NC(=O)C(CCC(=O)OC)NC(=O)C(CCC(=O)OC)NC(=O)C(CCC(=O)OC)NC(=O)C(Cc1ccc([N+](=O)[O-])cc1)NC(=O)C(CCC(=O)OC)NC(=O)C(CCC(=O)OC)NC(=O)C(CCC(=O)OC)NC(=O)C(CCC(=O)OC)NC(=O)C(CCC(=O)OC)NC(C)=O)C(N)=O` (stereo not drawn) (Ac-E(OMe)E(OMe)E(OMe)E(OMe)E(OMe)[Phe(4-NO2)]E(OMe)E(OMe)E(OMe)E(OMe)E(OMe)-NH2; configuration not given here), the TGI in the assay with SR leukemia, in the assay with KM12 colon, in the assay on ACHN renal, in the assay with A549 NSCLC, in the assay with COLO 205 colon and in the assay with SNB-19 CNS was more than 100 µM each time. This compound gave a TGI in the assay with HS 578T breast of more than 100 µM.

Regarding `CCOC(=O)C1=C(C)N(C2OC(COC(C)=O)C(OC(C)=O)C(OC(C)=O)C2OC(C)=O)C(=O)NC1c1ccccc1` (stereo not drawn), the TGI with SR leukemia, in the assay on KM12 colon, in the assay with ACHN renal, in the assay with A549 NSCLC, in the assay with COLO 205 colon and in the assay with HCC-2998 colon was more than 100 µM throughout. The compound also gave a TGI in the assay with SNB-19 CNS of more than 100 µM.

These data come from PubChem BioAssay (NCI).
